Measured values as given in US20250360185A1, “COMPOSITIONS COMPRISING PEDF-DERIVED SHORT PEPTIDES FOR THE TREATMENT OF DRY EYE DISEASES” (BRIM Biotechnology, Inc., priority 2022, published 2025).
“Also recorded” adds a separate entry of the source.

Legend:
Assay type in all cases: in vivo, human
subjects with DED [1] = assay: Visual analog scale (VAS) ocular symptom ratings, clinical study with CAE model; conditions: pre-CAE and post-CAE evaluations
Experimental: (§1) A multi-center, randomized, double masked, placebo controlled clinical study was conducted to assess the safety and efficacy of BRM421 ophthalmic solution (OS) in subjects with DED using a controlled adverse environment (CAE®) model (Ora, Inc., Andover, MA, USA). CAE® uses controlled ocular surface stress to exacerbate the signs and symptoms of DED in a safe and controllable manner.
(§2) During the first visit (Day-7±1), the subjects were screened, evaluated before CAE®, exposed to CAE®, evaluated after CAE®, and started with the placebo run-in period (7±1 days). During the 7-day study run-in period (for the purpose of subject selection) prior to randomization, all subjects received Placebo OS bilaterally, three times daily (TID). During the second visit, subjects were evaluated before CAE®, exposed to CAE®, and evaluated after CAE®. These evaluations formed the baseline measurements. The subjects were then randomized into two groups to receive either BRM421 ophthalmic solution (OS) or Placebo OS (Vehicle) bilaterally three times daily (TID) for 14 days from Visit 2 to Visit 4.
During these visits, subjects were evaluated for symptom efficacy. Specifically, visual analog scale (VAS) was measured by asking subjects to rate each ocular symptom due to ocular dryness. Symptoms assessed include burning/stinging, itching, foreign body sensation, blurred vision, eye dryness, photophobia, and pain.

subjects with DED [2] = assay: Ora Ocular Discomfort & 4-Symptom Questionnaire (ODS) diary, clinical study with CAE model; conditions: for Diary Dryness Change from Baseline, ANCOVA LS Mean (SE) / Diary Dryness Change from Baseline, Mean (SD) / Diary Burning Change from Baseline, ANCOVA LS Mean (SE) / Diary Ocular Discomfort Change from Baseline, ANCOVA LS Mean (SE) / Diary Burning Change from Baseline, Mean (SD) / Diary Ocular Discomfort Change from Baseline, Mean (SD): ITT observed data; for Diary Dryness Change from Baseline, Mean (SD) / Diary Burning Change from Baseline, Mean (SD) / Diary Ocular Discomfort Change from Baseline, Mean (SD): score 0 = None to 5 = Worst
Experimental: as §1, §2
Subjects were also asked to grade the severity of their dry eye disease symptoms in their diary in the morning and in the evening before instilling the study drug. The Ora Ocular Discomfort & 4-Symptom Questionnaire (ODS Questionnaire) was used, which included rating the severity of 5 symptoms: ocular discomfort, burning, dryness, grittiness, and stinging. Each symptom rating ranged from 0 to 5, where 0=None and 5=Worst.

subjects with DED [3] = assay: Corneal damage repair assessed with fluorescein staining, clinical study
Experimental: as §1, §2
Severe dry eye cases can lead to cornea damages, which can be assessed with fluorescein staining. PDSP of the invention can treat DED. In addition, these PDSP can also repair corneal damages. […] The selective efficacies of BRM421 treatment in cataract patients are unexpected.

[4] = Day 1 to Day 7, morning, pre-CAE baseline
[5] = Day 8 to 15, Evening, score 0-5
[6] = Day 8 to 15, Morning, score 0-5

Sequence: SLGAEQRTESIIHRALYYDLISSPDIHGT (listed as Homo sapiens) [BRM421, PEDF-derived short peptide, 29mer, residues 93-121; tested as BRM421 ophthalmic solution (OS)]
- VAS dryness compared to placebo (FIG. 4F) (subjects with DED [1]; subjects with cataract): significant improvements
- VAS dryness compared to placebo (FIG. 4E) (subjects with DED [1]; subjects without cataract): did not show significant improvements
- Diary Dryness Change from Baseline, ANCOVA LS Mean (SE) (subjects with DED [2]; Day 1 to 7, Evening, score 0-5): −0.243 (0.0484)
- Diary Dryness Change from Baseline, Mean (SD) (subjects with DED [2]; Day 1 to 7, Evening): −0.241 (0.5137)
- Diary Dryness Change from Baseline, ANCOVA LS Mean Difference (SE), BRM421 OS − Placebo (subjects with DED [2]; Day 1 to 7, Evening, score 0-5): −0.145 (0.0671)
- Diary Dryness Change from Baseline, Two-Sample t-test Mean Difference (SE), BRM421 OS − Placebo (subjects with DED [2]; Day 1 to 7, Evening, score 0-5): −0.140 (0.0673)
- Diary Burning Change from Baseline, ANCOVA LS Mean (SE) (subjects with DED [2]; Day 1 to 7, Morning, score 0-5): −0.254 (0.0528)
- Diary Ocular Discomfort Change from Baseline, ANCOVA LS Mean (SE) (subjects with DED [2]; Day 1 to 7, Morning, score 0-5): −0.138 (0.0518)
- Diary Burning Change from Baseline, Mean (SD) (subjects with DED [2]; Day 1 to 7, Morning): −0.256 (0.5580)
- Diary Ocular Discomfort Change from Baseline, Mean (SD) (subjects with DED [2]; Day 1 to 7, Morning): −0.149 (0.5064)
- Diary Burning Change from Baseline, ANCOVA LS Mean Difference (SE), BRM421 OS − Placebo (subjects with DED [2]; Day 1 to 7, Morning, score 0-5): −0.173 (0.0731)
- Diary Burning Change from Baseline, Two-Sample t-test Sample Mean Difference (SE), BRM421 OS − Placebo (subjects with DED [2]; Day 1 to 7, Morning, score 0-5): −0.172 (0.0742)
- Diary Ocular Discomfort Change from Baseline, ANCOVA LS Mean Difference (SE), BRM421 OS − Placebo (subjects with DED [2]; Day 1 to 7, Morning, score 0-5): −0.146 (0.0717)
- Diary Ocular Discomfort Change from Baseline, Two-Sample t-test Sample Mean Difference (SE), BRM421 OS − Placebo (subjects with DED [2]; Day 1 to 7, Morning, score 0-5): −0.152 (0.0727)
- Diary ocular discomfort and burning improvement from baseline compared to placebo (subjects with DED [2]; Day 1 to Day 7, evening): not significant in the evening
- Diary dryness improvement from baseline compared to placebo (FIG. 3A) (subjects with DED [2]; Day 1 to Day 7, evening, pre-CAE baseline): significantly better improvement
- Diary dryness improvement from baseline compared to placebo (FIG. 3A) (subjects with DED [2]; [4]): not significantly better in the morning
- Diary ocular discomfort and burning improvement from baseline compared to placebo (subjects with DED [2]; [4]): significantly better improvements
- Diary Dryness Change from Baseline, ANCOVA LS Mean (SE) (subjects with DED [2]; [5]): −0.377 (0.0651)
- Diary Dryness Change from Baseline, Mean (SD) (subjects with DED [2]; Day 8 to 15, Evening): −0.382 (0.6917)
- Diary Dryness Change from Baseline, ANCOVA LS Mean Difference (SE), BRM421 OS − Placebo (subjects with DED [2]; [5]): −0.036 (0.0901)
- Diary Dryness Change from Baseline, Two-Sample t-test Sample Mean Difference (SE), BRM421 OS − Placebo (subjects with DED [2]; [5]): −0.029 (0.0915)
- Diary Burning Change from Baseline, ANCOVA LS Mean (SE) (subjects with DED [2]; [6]): −0.313 (0.0640)
- Diary Ocular Discomfort Change from Baseline, ANCOVA LS Mean (SE) (subjects with DED [2]; [6]): −0.223 (0.0656)
- Diary Burning Change from Baseline, Mean (SD) (subjects with DED [2]; Day 8 to 15, Morning): −0.332 (0.7199)
- Diary Ocular Discomfort Change from Baseline, Mean (SD) (subjects with DED [2]; Day 8 to 15, Morning): −0.248 (0.6696)
- Diary Burning Change from Baseline, ANCOVA LS Mean Difference (SE), BRM421 OS − Placebo (subjects with DED [2]; [6]): −0.048 (0.0884)
- Diary Burning Change from Baseline, Two-Sample t-test Sample Mean Difference (SE), BRM421 OS − Placebo (subjects with DED [2]; [6]): −0.048 (0.0939)
- Diary Ocular Discomfort Change from Baseline, ANCOVA LS Mean Difference (SE), BRM421 OS − Placebo (subjects with DED [2]; [6]): −0.049 (0.0906)
- Diary Ocular Discomfort Change from Baseline, Two-Sample t-test Sample Mean Difference (SE), BRM421 OS − Placebo (subjects with DED [2]; [6]): −0.058 (0.0936)
- ODS dryness versus placebo (FIG. 3B) (subjects with DED [2]; Visit 3, both pre-CAE and post-CAE evaluations as baselines): no significant difference
- ODS burning and ODS stinging versus placebo (FIG. 3B) (subjects with DED [2]; Visit 3, post-CAE evaluations): significant effects
- Corneal damage repair compared to placebo (FIG. 5D) (subjects with DED [3]; patients with cataract and surgery): slight improvements
- Corneal damage repair compared to placebo (FIG. 5C) (subjects with DED [3]; patients with cataract but without surgery): significant improvements; also recorded: more significant
- Corneal damage repair compared to placebo (FIG. 5B) (subjects with DED [3]; subjects with cataract): significant improvements
- Corneal damage repair (FIG. 5A) (subjects with DED [3]; subjects without cataract): did not show significant improvements
